Measured values taken from ChEMBL document CHEMBL4837249, “Discovery of Potent Antiallergic Agents Based on an o-Aminopyridinyl Alkynyl Scaffold” (J Med Chem, 2021).

Key:
[1] = target: Tyrosine-protein kinase Srms (Homo sapiens, UniProt Q9H3Y6); test: Inhibition of human SRMS at 5 nM by radiometric scintillation counting analysis relative to control
[2] = target: Macrophage colony-stimulating factor 1 receptor (Homo sapiens, UniProt P07333); test: Inhibition of human recombinant CSF1R using ATP/Ulight-TK peptide at 500 nM incubated for 15 mins relative to control
[3] = target: Protein-tyrosine kinase 6 (Homo sapiens) (UniProt Q13882); test: Inhibition of human recombinant BRK (174 to 734) at 5 nM by radiometric scintillation counting analysis relative to control
[4] = target: Tyrosine-protein kinase ABL1 (Homo sapiens, UniProt P00519); test: Inhibition of human recombinant ABL1 using ATP/Ulight-TK peptide at 500 nM incubated for 15 mins relative to control
[5] = target: T1, Tyrosine-protein kinase ITK/TSK (Homo sapiens) (UniProt Q08881); test: Inhibition of human recombinant ITK (352 to 617) at 5 nM by radiometric scintillation counting analysis relative to control
T1 sequence (whole entry): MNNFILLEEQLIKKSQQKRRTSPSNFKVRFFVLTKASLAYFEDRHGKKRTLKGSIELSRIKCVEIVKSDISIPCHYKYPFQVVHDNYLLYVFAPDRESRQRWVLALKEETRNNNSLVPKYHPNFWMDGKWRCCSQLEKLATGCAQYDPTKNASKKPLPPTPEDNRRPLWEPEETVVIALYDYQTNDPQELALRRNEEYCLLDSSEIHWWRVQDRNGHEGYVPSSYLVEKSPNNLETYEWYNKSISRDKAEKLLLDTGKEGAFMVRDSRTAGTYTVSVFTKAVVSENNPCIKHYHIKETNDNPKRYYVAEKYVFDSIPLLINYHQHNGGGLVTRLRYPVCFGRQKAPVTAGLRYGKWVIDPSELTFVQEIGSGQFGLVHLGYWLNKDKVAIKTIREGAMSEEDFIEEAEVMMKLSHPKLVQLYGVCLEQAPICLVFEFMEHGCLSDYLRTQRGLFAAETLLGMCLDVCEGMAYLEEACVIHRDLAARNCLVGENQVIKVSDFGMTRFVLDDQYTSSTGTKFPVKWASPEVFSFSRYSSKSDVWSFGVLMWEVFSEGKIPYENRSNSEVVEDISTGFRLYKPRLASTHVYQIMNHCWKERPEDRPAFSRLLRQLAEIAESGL

[6] = target: T2, Tyrosine-protein kinase TXK (Homo sapiens) (UniProt P42681); test: Inhibition of human recombinant […] (256 to end) at 5 nM by radiometric scintillation counting analysis relative to control
T2 sequence (whole entry): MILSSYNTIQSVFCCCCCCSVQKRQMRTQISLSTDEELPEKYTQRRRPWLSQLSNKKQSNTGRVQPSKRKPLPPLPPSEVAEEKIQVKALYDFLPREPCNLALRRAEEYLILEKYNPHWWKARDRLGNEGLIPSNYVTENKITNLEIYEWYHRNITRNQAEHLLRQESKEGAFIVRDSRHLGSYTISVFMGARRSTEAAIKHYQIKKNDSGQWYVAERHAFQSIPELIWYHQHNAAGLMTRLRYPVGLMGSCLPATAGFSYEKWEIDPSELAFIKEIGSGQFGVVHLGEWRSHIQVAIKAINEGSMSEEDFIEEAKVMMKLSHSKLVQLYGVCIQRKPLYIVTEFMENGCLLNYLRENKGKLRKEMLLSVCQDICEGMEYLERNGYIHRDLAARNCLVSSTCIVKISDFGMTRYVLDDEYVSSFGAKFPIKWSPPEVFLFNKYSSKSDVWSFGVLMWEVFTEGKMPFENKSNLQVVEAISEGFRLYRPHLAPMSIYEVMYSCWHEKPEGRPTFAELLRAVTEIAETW

[7] = target: T3, Tyrosine-protein kinase CSK (Homo sapiens, UniProt P41240); test: Inhibition of human full length recombinant CSK at 5 nM by radiometric scintillation counting analysis relative to control
[8] = target: Tyrosine-protein kinase Lck (Homo sapiens, UniProt P06239); test: Inhibition of human full length recombinant LCK at 50 nM by radiometric scintillation counting analysis relative to control
[9] = target: T3, Tyrosine-protein kinase CSK; test: Inhibition of human full length recombinant CSK at 500 nM by radiometric scintillation counting analysis relative to control
[10] = target: T3, Tyrosine-protein kinase CSK; test: Inhibition of human full length recombinant CSK at 50 nM by radiometric scintillation counting analysis relative to control
[11] = target: T4, Tyrosine-protein kinase ZAP-70 (Homo sapiens) (UniProt P43403); test: Inhibition of human full length recombinant ZAP70 at 500 nM by radiometric scintillation counting analysis relative to control
T4 sequence (whole entry): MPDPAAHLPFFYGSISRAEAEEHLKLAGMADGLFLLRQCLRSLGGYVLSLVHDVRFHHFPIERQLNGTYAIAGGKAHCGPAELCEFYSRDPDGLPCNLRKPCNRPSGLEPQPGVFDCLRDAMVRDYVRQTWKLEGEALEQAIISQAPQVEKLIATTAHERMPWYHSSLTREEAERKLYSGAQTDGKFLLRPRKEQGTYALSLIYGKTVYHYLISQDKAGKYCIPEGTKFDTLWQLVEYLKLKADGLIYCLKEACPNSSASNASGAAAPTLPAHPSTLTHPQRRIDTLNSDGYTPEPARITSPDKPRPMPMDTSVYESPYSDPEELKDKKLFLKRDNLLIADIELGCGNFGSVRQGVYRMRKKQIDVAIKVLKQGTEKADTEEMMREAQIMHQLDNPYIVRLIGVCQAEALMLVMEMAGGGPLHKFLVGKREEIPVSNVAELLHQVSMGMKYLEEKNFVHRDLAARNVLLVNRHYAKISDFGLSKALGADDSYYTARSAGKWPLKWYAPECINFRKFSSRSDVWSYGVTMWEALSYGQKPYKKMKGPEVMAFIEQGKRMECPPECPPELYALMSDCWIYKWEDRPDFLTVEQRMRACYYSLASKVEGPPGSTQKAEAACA

[12] = target: Platelet-derived growth factor receptor beta (Homo sapiens) (UniProt P09619); test: Inhibition of human recombinant PDGFRbeta (557 to end) at 500 nM by radiometric scintillation counting analysis relative to control
[13] = target: Proto-oncogene tyrosine-protein kinase Src (Homo sapiens, UniProt P12931); test: Inhibition of human recombinant Src (1-530) at 50 nM by radiometric scintillation counting analysis relative to control
[14] = target: Tyrosine-protein kinase Blk (Homo sapiens, UniProt P51451); test: Inhibition of human full length recombinant BLK at 500 nM by radiometric scintillation counting analysis relative to control
[15] = target: Platelet-derived growth factor receptor alpha (Homo sapiens) (UniProt P16234); test: Inhibition of human recombinant PDGFRalpha (550 to end) at 500 nM by radiometric scintillation counting analysis relative to control
[16] = target: Tyrosine-protein kinase JAK1 (Homo sapiens) (UniProt P23458); test: Inhibition of human recombinant JAK1 at 500 nM radiometric scintillation counting analysis relative to control
[17] = target: Platelet-derived growth factor receptor beta (Homo sapiens) (UniProt P09619); test: Inhibition of human recombinant PDGFRbeta (557 to end) at 5 nM by radiometric scintillation counting analysis relative to control

Chain of Platelet-derived growth factor receptor beta (Homo sapiens) (P09619 whole entry): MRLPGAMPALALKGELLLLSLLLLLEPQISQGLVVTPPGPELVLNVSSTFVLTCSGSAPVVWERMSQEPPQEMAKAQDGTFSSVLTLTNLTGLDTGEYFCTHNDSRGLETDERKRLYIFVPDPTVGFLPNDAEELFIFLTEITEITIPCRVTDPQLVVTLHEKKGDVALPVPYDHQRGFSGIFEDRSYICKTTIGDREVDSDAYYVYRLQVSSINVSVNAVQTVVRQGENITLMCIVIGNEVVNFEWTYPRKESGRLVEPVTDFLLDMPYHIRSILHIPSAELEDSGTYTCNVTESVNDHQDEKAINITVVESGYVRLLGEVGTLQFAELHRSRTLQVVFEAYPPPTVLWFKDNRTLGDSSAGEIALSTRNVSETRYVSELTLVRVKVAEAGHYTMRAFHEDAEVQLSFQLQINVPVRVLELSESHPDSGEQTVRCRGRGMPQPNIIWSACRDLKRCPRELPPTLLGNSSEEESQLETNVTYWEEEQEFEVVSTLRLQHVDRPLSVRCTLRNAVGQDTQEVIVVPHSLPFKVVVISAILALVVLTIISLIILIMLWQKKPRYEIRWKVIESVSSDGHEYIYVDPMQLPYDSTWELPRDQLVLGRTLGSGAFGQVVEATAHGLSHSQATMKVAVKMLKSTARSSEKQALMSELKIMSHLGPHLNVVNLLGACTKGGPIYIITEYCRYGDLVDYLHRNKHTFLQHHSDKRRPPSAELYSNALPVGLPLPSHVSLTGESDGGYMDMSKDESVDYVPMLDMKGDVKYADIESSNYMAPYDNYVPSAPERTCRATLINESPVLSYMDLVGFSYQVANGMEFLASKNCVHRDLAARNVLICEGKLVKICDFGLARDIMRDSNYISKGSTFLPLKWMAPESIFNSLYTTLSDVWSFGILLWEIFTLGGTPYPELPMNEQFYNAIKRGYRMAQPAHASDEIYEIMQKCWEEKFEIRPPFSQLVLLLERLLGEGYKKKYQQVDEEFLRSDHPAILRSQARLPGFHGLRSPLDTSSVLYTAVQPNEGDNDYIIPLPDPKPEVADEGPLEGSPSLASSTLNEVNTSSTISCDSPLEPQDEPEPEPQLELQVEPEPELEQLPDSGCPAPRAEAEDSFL
Chain of Tyrosine-protein kinase Blk (P51451 2-505 limits assumed): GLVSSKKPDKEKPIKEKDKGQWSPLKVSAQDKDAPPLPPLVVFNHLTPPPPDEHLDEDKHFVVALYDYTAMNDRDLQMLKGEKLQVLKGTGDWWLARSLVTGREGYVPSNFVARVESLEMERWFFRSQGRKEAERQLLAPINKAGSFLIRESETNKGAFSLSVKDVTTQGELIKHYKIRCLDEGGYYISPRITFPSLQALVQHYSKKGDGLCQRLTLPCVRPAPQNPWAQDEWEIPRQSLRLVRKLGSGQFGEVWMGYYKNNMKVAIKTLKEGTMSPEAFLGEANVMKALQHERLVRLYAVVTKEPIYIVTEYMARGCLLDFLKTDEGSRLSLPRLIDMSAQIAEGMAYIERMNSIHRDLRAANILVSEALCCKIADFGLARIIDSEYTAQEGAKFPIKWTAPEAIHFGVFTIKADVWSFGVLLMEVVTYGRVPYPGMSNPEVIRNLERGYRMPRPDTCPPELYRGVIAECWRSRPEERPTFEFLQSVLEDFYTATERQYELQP
Chain of Tyrosine-protein kinase Srms (Q9H3Y6 whole entry): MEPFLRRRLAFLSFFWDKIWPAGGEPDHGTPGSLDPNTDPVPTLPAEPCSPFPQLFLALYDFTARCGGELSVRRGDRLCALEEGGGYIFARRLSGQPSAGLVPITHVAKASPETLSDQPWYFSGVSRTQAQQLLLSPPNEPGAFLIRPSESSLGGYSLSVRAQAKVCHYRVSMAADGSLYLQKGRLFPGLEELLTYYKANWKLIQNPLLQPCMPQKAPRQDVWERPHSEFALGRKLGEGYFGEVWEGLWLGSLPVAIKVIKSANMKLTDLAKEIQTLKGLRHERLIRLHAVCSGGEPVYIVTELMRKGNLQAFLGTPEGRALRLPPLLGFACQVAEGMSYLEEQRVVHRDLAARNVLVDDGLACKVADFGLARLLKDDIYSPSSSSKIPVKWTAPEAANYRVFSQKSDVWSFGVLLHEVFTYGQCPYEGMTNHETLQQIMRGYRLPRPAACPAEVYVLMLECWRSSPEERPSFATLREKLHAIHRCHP
T3 sequence (P41240 2-450 limits assumed): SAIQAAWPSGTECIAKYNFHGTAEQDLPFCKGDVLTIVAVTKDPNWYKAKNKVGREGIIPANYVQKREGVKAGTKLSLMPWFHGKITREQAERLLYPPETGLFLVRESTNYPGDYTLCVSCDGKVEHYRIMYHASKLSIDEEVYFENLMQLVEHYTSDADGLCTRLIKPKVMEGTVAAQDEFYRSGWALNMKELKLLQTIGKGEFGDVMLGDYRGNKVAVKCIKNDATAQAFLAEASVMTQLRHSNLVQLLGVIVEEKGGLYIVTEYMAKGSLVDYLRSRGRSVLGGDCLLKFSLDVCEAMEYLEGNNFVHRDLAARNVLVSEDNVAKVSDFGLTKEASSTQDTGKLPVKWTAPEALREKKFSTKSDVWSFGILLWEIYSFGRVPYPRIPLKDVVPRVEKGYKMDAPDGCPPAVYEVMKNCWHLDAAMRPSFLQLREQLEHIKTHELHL
Chain of Platelet-derived growth factor receptor alpha (Homo sapiens) (P16234 whole entry): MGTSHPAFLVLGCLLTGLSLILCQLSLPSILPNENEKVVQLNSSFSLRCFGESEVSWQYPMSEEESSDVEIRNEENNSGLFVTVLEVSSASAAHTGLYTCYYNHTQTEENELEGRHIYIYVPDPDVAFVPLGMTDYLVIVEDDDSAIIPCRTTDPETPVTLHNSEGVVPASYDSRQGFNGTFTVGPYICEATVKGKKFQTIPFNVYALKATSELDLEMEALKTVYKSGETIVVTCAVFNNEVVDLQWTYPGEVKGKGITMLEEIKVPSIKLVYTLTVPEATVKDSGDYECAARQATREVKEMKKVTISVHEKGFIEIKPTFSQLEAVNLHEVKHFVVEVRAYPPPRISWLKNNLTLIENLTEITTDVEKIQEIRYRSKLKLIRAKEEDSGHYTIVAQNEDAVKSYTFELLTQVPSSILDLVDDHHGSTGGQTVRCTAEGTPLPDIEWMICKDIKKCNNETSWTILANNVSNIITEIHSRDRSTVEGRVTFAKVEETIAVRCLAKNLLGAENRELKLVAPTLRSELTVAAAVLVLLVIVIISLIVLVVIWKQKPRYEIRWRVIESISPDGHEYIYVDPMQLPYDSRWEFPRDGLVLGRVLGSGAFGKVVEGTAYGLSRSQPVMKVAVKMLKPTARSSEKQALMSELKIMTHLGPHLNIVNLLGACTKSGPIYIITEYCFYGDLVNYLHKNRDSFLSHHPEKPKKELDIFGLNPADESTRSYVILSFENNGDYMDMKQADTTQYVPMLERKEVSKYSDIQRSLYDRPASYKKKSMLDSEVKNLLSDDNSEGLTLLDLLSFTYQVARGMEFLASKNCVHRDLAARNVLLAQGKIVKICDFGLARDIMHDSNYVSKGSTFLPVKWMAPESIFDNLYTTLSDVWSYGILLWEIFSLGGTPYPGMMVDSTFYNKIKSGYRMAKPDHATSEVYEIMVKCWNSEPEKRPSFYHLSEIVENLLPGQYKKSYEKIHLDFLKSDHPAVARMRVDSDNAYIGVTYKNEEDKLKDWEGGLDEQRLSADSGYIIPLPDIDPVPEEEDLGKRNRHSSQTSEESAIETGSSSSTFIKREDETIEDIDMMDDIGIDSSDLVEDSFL
Chain of Tyrosine-protein kinase Lck (P06239 2-509 limits assumed): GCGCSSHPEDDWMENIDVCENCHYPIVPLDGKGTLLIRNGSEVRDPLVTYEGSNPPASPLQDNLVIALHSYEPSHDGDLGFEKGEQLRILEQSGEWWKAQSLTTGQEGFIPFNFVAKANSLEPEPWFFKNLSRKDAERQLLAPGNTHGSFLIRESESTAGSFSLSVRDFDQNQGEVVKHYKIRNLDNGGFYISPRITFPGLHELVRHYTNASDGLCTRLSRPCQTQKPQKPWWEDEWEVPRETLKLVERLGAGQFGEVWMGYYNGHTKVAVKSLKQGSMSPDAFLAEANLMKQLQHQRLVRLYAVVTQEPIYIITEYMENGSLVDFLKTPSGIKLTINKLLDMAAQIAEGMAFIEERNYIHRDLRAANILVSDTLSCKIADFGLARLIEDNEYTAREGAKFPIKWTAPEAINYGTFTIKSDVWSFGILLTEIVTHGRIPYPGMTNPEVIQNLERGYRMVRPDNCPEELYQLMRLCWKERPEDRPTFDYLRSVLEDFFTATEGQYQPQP
Chain of Proto-oncogene tyrosine-protein kinase Src (P12931 2-536 limits assumed): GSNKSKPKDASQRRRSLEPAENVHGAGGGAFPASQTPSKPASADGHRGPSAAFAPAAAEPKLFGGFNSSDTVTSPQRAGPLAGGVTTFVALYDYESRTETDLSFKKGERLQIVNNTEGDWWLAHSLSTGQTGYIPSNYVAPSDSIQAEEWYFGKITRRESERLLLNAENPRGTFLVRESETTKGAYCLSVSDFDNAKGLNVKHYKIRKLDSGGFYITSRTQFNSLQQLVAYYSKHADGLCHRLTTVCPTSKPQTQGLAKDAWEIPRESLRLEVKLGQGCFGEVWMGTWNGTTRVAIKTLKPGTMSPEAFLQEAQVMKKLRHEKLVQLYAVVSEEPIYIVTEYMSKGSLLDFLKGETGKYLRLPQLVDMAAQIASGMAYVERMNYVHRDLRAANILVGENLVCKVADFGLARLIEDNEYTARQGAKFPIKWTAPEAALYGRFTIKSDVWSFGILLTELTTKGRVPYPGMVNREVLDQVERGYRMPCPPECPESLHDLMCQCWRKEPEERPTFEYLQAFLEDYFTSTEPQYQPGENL

Question: For Cc1ccc(C(=O)Nc2ccc(Cl)cc2Cl)cc1C#Cc1cc(-c2cnn(C)c2)cnc1N, which inhibition [1] is on record?
Answer: 7%

Question: And the inhibition [2]?
Answer: 98%

Question: What about the inhibition [3] of the same compound?
Answer: 9%

Question: What about the inhibition [4] of the same compound?
Answer: 89%

Question: And the inhibition [5]?
Answer: -5%

Question: What about the inhibition [6] of the same compound?
Answer: 2%

Question: And the inhibition [7]?
Answer: 22%

Question: And the inhibition [8]?
Answer: 59%

Question: And the inhibition [9]?
Answer: 39%

Question: What about the inhibition [10] of the same compound?
Answer: 28%

Question: And the inhibition [11]?
Answer: 20%

Question: What about the inhibition [12] of the same compound?
Answer: 83%

Question: What about the inhibition [13] of the same compound?
Answer: 49%

Question: What about the inhibition [14] of the same compound?
Answer: 50%

Question: What about the inhibition [15] of the same compound?
Answer: 94%

Question: What about the inhibition [16] of the same compound?
Answer: -8%

Question: What about the inhibition [17] of the same compound?
Answer: 12%

Question: How did the inhibition [1] turn out when Cc1ccc(C(=O)Nc2cc(C(F)(F)F)cc(C(F)(F)F)c2)cc1C#Cc1cc(-c2cnn(C)c2)cnc1N was run?
Answer: 20%

Question: What about the inhibition [2] of the same compound?
Answer: 96%

Question: What about the inhibition [3] of the same compound?
Answer: -2%

Question: What about the inhibition [4] of the same compound?
Answer: 104%

Question: And the inhibition [5]?
Answer: -8%

Question: And the inhibition [6]?
Answer: 17%

Question: And the inhibition [7]?
Answer: 22%

Question: What about the inhibition [8] of the same compound?
Answer: 60%

Question: And the inhibition [9]?
Answer: 71%

Question: What about the inhibition [10] of the same compound?
Answer: 34%

Question: What about the inhibition [11] of the same compound?
Answer: -1%

Question: And the inhibition [12]?
Answer: 12%

Question: And the inhibition [13]?
Answer: 98%

Question: And the inhibition [14]?
Answer: 98%

Question: What about the inhibition [15] of the same compound?
Answer: 18%

Question: And the inhibition [16]?
Answer: 0%

Question: And the inhibition [17]?
Answer: 18%

Question: What does the source list for Cc1ccc(C(=O)Nc2ccc(OC(F)(F)F)cc2)cc1C#Cc1cc(-c2cnn(C)c2)cnc1N?
Answer: inhibition [1]: -1%; inhibition [2]: 90%; inhibition [3]: 17%; inhibition [4]: 102%; inhibition [5]: 0%; inhibition [6]: 12%; inhibition [7]: 2%; inhibition [8]: 98%; inhibition [9]: 23%; inhibition [10]: 4%; inhibition [11]: -4%; inhibition [12]: 71%; inhibition [13]: 95%; inhibition [14]: 99%; inhibition [15]: 82%; inhibition [16]: -2%; inhibition [17]: 1%
